Reference: US20210161135A1, “WEED CONTROL FROM APPLICATIONS OF PYRIDINE CARBOXYLIC ACID HERBICIDES AND 4-HYDROXYPHENYL-PYRUVATE DIOXYGENASE (HPPD) INHIBITORS” (Dow AgroSciences LLC, priority 2018, published 2021)

How the values were obtained:
Experiment in all cases: Postemergence herbicidal activity, greenhouse, visual injury after 20-22 d
Assay type in all cases: in vivo
[1] = tested on: soybean (Glycine max, GLXMA); settings: two trials
Experimental: (§1) Seeds of the desired test plant species were planted in Sun Gro MetroMix® 306 planting mixture, which typically has a pH of 6.0 to 6.8 and an organic matter content of about 30 percent, in plastic pots with a surface area of 103.2 square centimeters (cm^2). When required to ensure good germination and healthy plants, a fungicide treatment and/or other chemical or physical treatment was applied. The plants were grown for 7-36 days (d) in a greenhouse with an approximate 14-hour (h) photoperiod which was maintained at about 23° C. during the day and 22° C. during the night. Nutrients and water were added on a regular basis and supplemental lighting was provided with overhead metal halide 1000-Watt lamps as necessary. The plants were employed for testing when they reached the second or third true leaf stage.
(§2) An emulsifiable concentrate (EC) formulation containing Compound 1 at 100 gai/L was prepared by combining Compound 1 with 1-butyl-2-pyrrolidinone (Tamisolve NxG; 360.5 g/L), benzyl acetate (544.6 g/L) and Agnique MBL 520L surfactant (52.9 g/L). […] The concentrated stock solutions were diluted with an aqueous mixture of 1.5% v/v of Agri-dex crop oil concentrate to provide the appropriate application rates. Compound requirements are based upon a 12 milliliter (mL) application volume at a rate of 187 liters per hectare (L/ha). Spray solutions of the experimental compound mixtures were prepared by adding the stock solutions to the appropriate amount of dilution solution to form a 12 mL spray solution in two-way combinations. Formulated compounds were applied to the plant material with an overhead Mandel track sprayer equipped with 8002E nozzles calibrated to deliver 187 L/ha over an application area of 0.503 square meters (m^2) at a spray height of […] above average plant canopy. Control plants were sprayed in the same manner with the solvent blank. Application rates for component (a) are in g ai/ha, and application rates for component (b) are in g ai/ha.
(§3) The treated plants and control plants were placed in a greenhouse as described above and watered by sub-irrigation to prevent wash-off of the test compounds. After 20-22 d, the condition of the test plants as compared with that of the control plants was determined visually and scored on a scale of 0 to 100 percent where 0 corresponds to no injury and 100 corresponds to complete kill. […] The Colby method was used to determine the herbicidal effects expected from the mixtures.

[2] = tested on: common lambsquarters (Chenopodium album L., CHEAL)
Experimental: as §1, §2, §3

[3] = tested on: pigweed (Amaranthus retroflexus, AMARE); settings: two trials
Experimental: as §1, §2, §3

[4] = tested on: thistle (Cirsium arvense CIRAR)
Experimental: as §1, §2, §3

[5] = tested on: grain sorghum (Sorghum vulgare, SORVU); settings: two trials
Experimental: as §1, §2, §3

[6] = tested on: poinsettia (Euphorbia heterophylla, EPHHL)
Experimental: as §1, §2, §3

[7] = tested on: winter rape (Brassica napus, BRSNW); settings: two trials
Experimental: as §1, §2, §3

[8] = tested on: large crabgrass (Digitaria sanguinalis, DIGSA); settings: HPPD inhibitor 35 g ai/ha alone, two trials
Experimental: as §1, §2, §3

[9] = tested on: wild pansy (Viola tricolor, VIOTR)
Experimental: as §1, §2, §3

[10] = tested on: ivyleaf morningglory (Ipomoea hederacea, IPOHE); settings: two trials
Experimental: as §1, §2, §3

maize (Zea mays, ZEAMX) = settings: two trials
Experimental: as §1, §2, §3

[11] = tested on: common chickweed (Stellaria media, STEME); settings: two trials
Experimental: as §1, §2, §3

[12] = tested on: sunflower (Helianthus annuus, HELAN); settings: two trials
Experimental: as §1, §2, §3

[13] = tested on: wild buckwheat (Polygonum convolvulus, POLCO)
Experimental: as §1, §2, §3

[14] = tested on: barnyardgrass (Echinochloa crus-galli, ECHCG); settings: two trials
Experimental: as §1, §2, §3

[15] = tested on: spring rape (Brassica napus, BRSNN)
Experimental: as §1, §2, §3

[16] = tested on: kochia (Kochia scoparia, KCHSC)
Experimental: as §1, §2, §3

[17] = tested on: giant foxtail (Setaria faberi, SETFA); settings: two trials
Experimental: as §1, §2, §3

[18] = tested on: velvetleaf (Abutilon theophrasti, ABUTH)
Experimental: as §1, §2, §3

[19] = tested on: rice (Oryza sativa, ORYSA); settings: Sulcotrione 75 g ai/ha alone, two trials
Experimental: as §1, §2, §3

[20] = tested on: winter wheat (Triticum aestivum, TRZAW); settings: Sulcotrione 75 g ai/ha alone, two trials
Experimental: as §1, §2, §3

[21] = HPPD inhibitor 35 g ai/ha alone
[22] = HPPD inhibitor 35 g ai/ha alone, two trials
[23] = Sulcotrione 75 g ai/ha alone, two trials

SMILES: CS(=O)(=O)c1ccc(C(=O)C2C(=O)CCCC2=O)c([N+](=O)[O-])c1 [Mesotrione, 2-[4-(methylsulfonyl)-2-nitrobenzoyl]-1,3-cyclohexanedione]
- Effect (% visual injury), Obs [1, 21]: 70%
- Effect (% visual injury), Obs [2, 22]: 100%
- Effect (% visual injury), Obs [3, 21]: 30%
- Effect (% visual injury), Obs [4, 22]: 100%
- Effect (% visual injury), Obs [5, 21]: 0%
- Effect (% visual injury), Obs [6, 22]: 20%
- Effect (% visual injury), Obs [7, 21]: 60%
- Effect (% visual injury), Obs [8]: 20%
- Effect (% visual injury), Obs [9, 22]: 58%
- Effect (% visual injury), Obs [10, 21]: 70%
- Effect (% visual injury), Obs (maize (Zea mays, ZEAMX); [21]): 0%
- Effect (% visual injury), Obs [11, 21]: 60%
- Effect (% visual injury), Obs [12, 21]: 93%
- Effect (% visual injury), Obs [13, 22]: 48%
- Effect (% visual injury), Obs [14, 21]: 10%
- Effect (% visual injury), Obs [15, 22]: 100%
- Effect (% visual injury), Obs [16, 22]: 70%
- Effect (% visual injury), Obs [17, 21]: 0%
- Effect (% visual injury), Obs [18, 22]: 88%

SMILES: Cc1ccc(S(=O)(=O)Oc2c(C(=O)c3ccc(Cl)cc3Cl)c(C)nn2C)cc1 [Pyrazolynate, (2,4-dichlorophenyl)[1,3-dimethyl-5-[[(4-methylphenyl)sulfonyl]oxy]-1H-pyrazol-4-yl]methanone]
- Effect (% visual injury), Obs ([2]; Pyrazolynate 225 g ai/ha alone): 10%
- Effect (% visual injury), Obs ([4]; Pyrazolynate 225 g ai/ha alone): 0%
- Effect (% visual injury), Obs ([6]; Pyrazolynate 225 g ai/ha alone): 0%
- Effect (% visual injury), Obs ([9]; Pyrazolynate 225 g ai/ha alone): 0%
- Effect (% visual injury), Obs ([13]; Pyrazolynate 225 g ai/ha alone): 0%
- Effect (% visual injury), Obs ([15]; Pyrazolynate 225 g ai/ha alone): 0%
- Effect (% visual injury), Obs ([16]; Pyrazolynate 225 g ai/ha alone): 0%
- Effect (% visual injury), Obs ([18]; Pyrazolynate 225 g ai/ha alone): 0%

SMILES: CS(=O)(=O)c1ccc(C(=O)C2C(=O)CCCC2=O)c(Cl)c1 [Sulcotrione, 2-[2-chloro-4-(methylsulfonyl)benzoyl]-1,3-cyclohexanedione]
- Effect (% visual injury), Obs ([1]; Sulcotrione 75 g ai/ha alone): 65%
- Effect (% visual injury), Obs [2, 23]: 100%
- Effect (% visual injury), Obs [19]: 5%
- Effect (% visual injury), Obs ([3]; Sulcotrione 75 g ai/ha alone): 40%
- Effect (% visual injury), Obs [4, 23]: 70%
- Effect (% visual injury), Obs ([5]; Sulcotrione 75 g ai/ha alone): 0%
- Effect (% visual injury), Obs [6, 23]: 60%
- Effect (% visual injury), Obs ([7]; Sulcotrione 75 g ai/ha alone): 70%
- Effect (% visual injury), Obs [9, 23]: 73%
- Effect (% visual injury), Obs ([10]; Sulcotrione 75 g ai/ha alone): 65%
- Effect (% visual injury), Obs (maize (Zea mays, ZEAMX); Sulcotrione 75 g ai/ha alone): 0%
- Effect (% visual injury), Obs ([11]; Sulcotrione 75 g ai/ha alone): 85%
- Effect (% visual injury), Obs ([12]; Sulcotrione 75 g ai/ha alone): 80%
- Effect (% visual injury), Obs [13, 23]: 48%
- Effect (% visual injury), Obs ([14]; Sulcotrione 75 g ai/ha alone): 40%
- Effect (% visual injury), Obs [15, 23]: 95%
- Effect (% visual injury), Obs [16, 23]: 45%
- Effect (% visual injury), Obs ([17]; Sulcotrione 75 g ai/ha alone): 0%
- Effect (% visual injury), Obs [20]: 0%
- Effect (% visual injury), Obs [18, 23]: 50%
